From PubChem BioAssay (NCI)
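Step 1: Grow cells in 96-well plates. Step 2: Expose to compound for 48 hours at 5 concentrations. Step 3: Interpolate endpoints linearly; if unreached, use highest concentration. GI50: concentration for 50% inhibition of growth. TGI is the concentration that stops growth completely.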

Experiments:
Assay in all cases: NCI anticancer screen, dose series, 48 h
[1] = test system: A549 NSCLC
[2] = test system: NCI-H23 lung
[3] = test system: OVCAR-8 ovarian
[4] = test system: EKVX NSCLC
[5] = test system: SK-MEL-5 melanoma
[6] = test system: K-562 leukemia
[7] = test system: MOLT-4 leukemia
[8] = test system: HS 578T breast
[9] = test system: HOP-62 NSCLC
[10] = test system: NCI/ADR-RES ovarian
[11] = test system: M14 melanoma
[12] = test system: PC-3 prostate
[13] = test system: SF-295 CNS
[14] = test system: HCC-2998 colon
[15] = test system: SF-268 CNS
[16] = test system: CAKI-1 renal
[17] = test system: HT29 colon
[18] = test system: LOX IMVI melanoma
[19] = test system: CCRF-CEM leukemia
[20] = test system: IGROV1 ovarian
[21] = test system: SNB-75 CNS
[22] = test system: NCI-H522 lung
[23] = test system: SN12C renal
[24] = test system: SNB-19 CNS
[25] = test system: SK-OV-3 ovarian
[26] = test system: SW-620 colon
[27] = test system: MDA-MB-231 breast
[28] = test system: HCT-116 colon
[29] = test system: RXF 393 renal
[30] = test system: U251 CNS
[31] = test system: DU-145 prostate
[32] = test system: UACC-62 melanoma
[33] = test system: HL-60(TB) leukemia
[34] = test system: MCF7 breast
[35] = test system: UO-31 renal
[36] = test system: UACC-257 melanoma
[37] = test system: MDA-MB-435
[38] = test system: SR leukemia
[39] = test system: OVCAR-4 ovarian
[40] = test system: SK-MEL-2 melanoma
[41] = test system: OVCAR-5 ovarian
[42] = test system: MALME-3M melanoma
[43] = test system: NCI-H460 lung
[44] = test system: 786-0 renal
[45] = test system: T-47D breast
[46] = test system: BT-549 breast
[47] = test system: A498 renal
[48] = test system: HCT-15 colon
[49] = test system: ACHN renal
[50] = test system: SK-MEL-28 melanoma
[51] = test system: RPMI-8226 leukemia
[52] = test system: COLO 205 colon
[53] = test system: TK-10 renal
[54] = test system: KM12 colon
[55] = test system: SF-539 CNS
[56] = test system: OVCAR-3 ovarian

## ClCC#CCSc1ncnc2c1ncn2CC#CCCl
[1]
  GI50: 1.76 µM
  TGI: 4.35 µM
[2]
  GI50: 1.49 µM
  TGI: 3.46 µM
[3]
  GI50: 1.78 µM
  TGI: 5.24 µM
[4]
  GI50: 1.9 µM
  TGI: 4.2 µM
[5]
  GI50: 1.29 µM
  TGI: 2.66 µM
[6]
  GI50: 3.15 µM
  TGI: 40.4 µM
[7]
  GI50: 2.68 µM
  TGI: 14.1 µM
[8]
  GI50: 2.41 µM
  TGI: 9.8 µM
[9]
  GI50: 1.28 µM
  TGI: 2.67 µM
[10]
  GI50: 1.77 µM
  TGI: 4.92 µM
[11]
  GI50: 1.47 µM
  TGI: 3.13 µM
[12]
  GI50: 1.41 µM
  TGI: 3.24 µM
[13]
  GI50: 2.05 µM
  TGI: 4.59 µM
[14]
  GI50: 1.67 µM
  TGI: 3.11 µM
[15]
  GI50: 1.33 µM
  TGI: 3.09 µM
[16]
  GI50: 1.15 µM
  TGI: 3.74 µM
[17]
  GI50: 1.65 µM
  TGI: 3.85 µM
[18]
  GI50: 0.503 µM
  TGI: 2 µM
[19]
  GI50: 1.8 µM
  TGI: 15.2 µM
[20]
  GI50: 1.03 µM
  TGI: 3.34 µM
[21]
  GI50: 1.42 µM
  TGI: 3.06 µM
[22]
  GI50: 1.14 µM
  TGI: 2.73 µM
[23]
  GI50: 1.55 µM
  TGI: 3.65 µM
[24]
  GI50: 1.64 µM
  TGI: 3.61 µM
[25]
  GI50: 1.86 µM
  TGI: 3.95 µM
[26]
  GI50: 2.17 µM
  TGI: 4.79 µM
[27]
  GI50: 1.5 µM
  TGI: 3.55 µM
[28]
  GI50: 1.42 µM
  TGI: 2.93 µM
[29]
  GI50: 1.01 µM
  TGI: 2.29 µM
[30]
  GI50: 1.32 µM
  TGI: 3.04 µM
[31]
  GI50: 1.79 µM
  TGI: 4.49 µM
[32]
  GI50: 1.17 µM
  TGI: 2.66 µM
[33]
  GI50: 1.99 µM
  TGI: 5.73 µM
[34]
  GI50: 1.18 µM
  TGI: 3.62 µM
[35]
  GI50: 1.33 µM
  TGI: 3.38 µM
[36]
  GI50: 1.36 µM
  TGI: 3.49 µM
[37]
  GI50: 2.27 µM
  TGI: 9.04 µM
[38]
  GI50: 0.432 µM
  TGI: 13.8 µM
[39]
  GI50: 2.12 µM
  TGI: 8.29 µM
[40]
  GI50: 1.75 µM
  TGI: 4.79 µM
[41]
  GI50: 1.73 µM
  TGI: 3.34 µM
[42]
  GI50: 1.88 µM
  TGI: 6.42 µM
[43]
  GI50: 2.15 µM
  TGI: 6.77 µM
[44]
  GI50: 1.66 µM
  TGI: 3.41 µM
[45]
  GI50: 1.33 µM
  TGI: 2.68 µM
[46]
  GI50: 1.61 µM
  TGI: 3.02 µM
[47]
  GI50: 1.75 µM
  TGI: 4.75 µM
[48]
  GI50: 1.68 µM
  TGI: 5.97 µM
[49]
  GI50: 1.98 µM
  TGI: 5.5 µM
[50]
  GI50: 1.61 µM
  TGI: 3.14 µM
[51]
  GI50: 2.03 µM
  TGI: 6.38 µM
[52]
  GI50: 1.56 µM
  TGI: 3.03 µM
[53]
  GI50: 2.94 µM
  TGI: 13.9 µM
[54]
  GI50: 1.39 µM
  TGI: 2.8 µM
[55]
  GI50: 2.1 µM
  TGI: 4.21 µM
[56]
  GI50: 1.51 µM
  TGI: 2.95 µM
